Assay results from patent US20250000847A1, “TREATMENT OF NEURODEGENERATIVE DISEASES WITH HDAC INHIBITORS” (CASE WESTERN RESERVE UNIVERSITY, priority 2021, published 2025).

System: acetylated histone 4 (AcH4)
Experiment: Acetylated histone 4 in vivo (target engagement)
Parameters: species or system mouse
Conditions: chronic daily 10 mg/kg, then two days of 5 mg/kg LPS
Experimental: Mice were perfused with PBS followed by 4% paraformaldehyde, after which brains were extracted and cryopreserved in 30% sucrose then frozen in OCT and sectioned. The stain slides were washed with PBS then incubated overnight with primary antibody against acetyl-Histone H4 (EMD Millipore, 06-866). After primary incubation slides were then washed and labeled with AlexaFluor secondary antibodies (ThermoFisher). Images were captured on a Hamamatsu Nanozoomer S60 Slide scanner with NDP 2.0 software. Image analysis was performed using Perkin Elmer Columbus automated software.

With `Nc1cc(F)ccc1NC(=O)/C=C/c1cnn(C/C=C/c2ccccc2)c1` [RGFP966] the “levels of acetylated histone 4 (AcH4)” value was “increased”.
